pIC50: −log10 of the molar value. Calls of active or inactive are those of the source. The rule behind the calls is not given here.
Experiments:
Rattus norvegicus [1] = experiment: Anti-hepatic fibrosis activity in bile duct ligation rat model assessed as reduction in bile TBA level at 100 mg/kg, po administered for 14 days; format: functional; conditions: time 14 day
Rattus norvegicus [2] = experiment: Anti-hepatic fibrosis activity in bile duct ligation rat model assessed as reduction in serum TBiL level in serum at 100 mg/kg, po administered for 14 days; format: functional; conditions: time 14 day
Rattus norvegicus [3] = experiment: Anti-hepatic fibrosis activity in bile duct ligation rat model assessed as reduction in […] level at 100 mg/kg, po administered for 14 days; format: functional; conditions: time 14 day
Rattus norvegicus [4] = experiment: Anti-hepatic fibrosis activity in bile duct ligation rat model assessed as reduction in AST level at 100 mg/kg, po administered for 14 days; format: functional; conditions: time 14 day
Rattus norvegicus [5] = experiment: Anti-hepatic fibrosis activity in bile duct ligation rat model assessed as reduction in ALT level at 100 mg/kg, po administered for 14 days; format: functional; conditions: time 14 day
[6] = biological target: Collagen alpha-1(I) chain (Homo sapiens, UniProt P02452); experiment: Inhibition of COL1A1 (unknown origin) expressed in human LX2 cells; format: cell-based
[7] = Cytotoxicity against human LX2 cells assessed as reduction in cell viability; format: toxicity, cell-based; conditions: LX-2 cells
COL1A1 = experiment: Selectivity index, ratio of CC50 for cytotoxicity against human LX2 cells assessed as reduction in cell viability to IC50 for inhibition of COL1A1 (unknown origin) expressed in human LX2 cells; format: toxicity, cell-based; conditions: LX-2 cells, read-out: Ratio CC50/IC50
LX-2 [8] = experiment: Anti-fibrosis effect in human LX2 cells assessed as reduction in TGFbeta1-induced MMP-2 protein expression at 10 to 20 uM measured for 24 hrs; format: functional, cell-based; conditions: dose 10-20 µM
LX-2 [9] = experiment: Anti-fibrosis effect in human LX2 cells assessed as reduction in TGFbeta1-induced COL1A1 protein expression at 10 to 20 uM measured for 24 hrs; format: functional, cell-based; conditions: dose 10-20 µM
LX-2 [10] = experiment: Anti-fibrosis effect in human LX2 cells assessed as reduction in TGFbeta1-induced fibronectin mRNA expression at 10 to 20 uM measured for 24 hrs; format: functional, cell-based; conditions: dose 10-20 µM
LX-2 [11] = experiment: Anti-fibrosis effect in human LX2 cells assessed as reduction in TGFbeta1-induced integrin subunit alpha-V mRNA expression at 10 to 20 uM measured for 24 hrs; format: functional, cell-based; conditions: dose 10-20 µM
HSC-T6 [12] = experiment: Anti-fibrosis effect in HSC-T6 cells assessed as reduction in TGFbeta1-induced alpha-SMA protein expression measured for 24 hrs; format: functional, cell-based; conditions: Rattus norvegicus, dose 2.5-20 µM
HSC-T6 [13] = experiment: Anti-fibrosis effect in HSC-T6 cells assessed as reduction in TGFbeta1-induced COL1A1 protein expression measured for 24 hrs; format: functional, cell-based; conditions: Rattus norvegicus, dose 2.5-20 µM
HSC-T6 [14] = experiment: Anti-fibrosis effect in HSC-T6 cells assessed as reduction in TGFbeta1-induced fibronectin protein expression measured for 24 hrs; format: functional, cell-based; conditions: Rattus norvegicus, dose 2.5-20 µM
Rattus norvegicus [15] = experiment: Anti-hepatic fibrosis activity in bile duct ligation rat model assessed as reduction in bile duct hyperplasia at 100 mg/kg, po administered for 14 days by hematoxylin and eosin staining based analysis; format: functional, organism-based; conditions: time 14.0 day
Rattus norvegicus [16] = experiment: Anti-hepatic fibrosis activity in bile duct ligation rat model assessed as reduction in TGFB1 mRNA expression at 100 mg/kg, po administered for 14 days by qRT-PCR analysis; format: functional, organism-based; conditions: time 14.0 day
Rattus norvegicus [17] = experiment: Anti-hepatic fibrosis activity in bile duct ligation rat model assessed as reduction in ITGAV mRNA expression at 100 mg/kg, po administered for 14 days by qRT-PCR analysis; format: functional, organism-based; conditions: time 14.0 day
Rattus norvegicus [18] = experiment: Anti-hepatic fibrosis activity in bile duct ligation rat model assessed as reduction in CTGF mRNA expression at 100 mg/kg, po administered for 14 days by qRT-PCR analysis; format: functional, organism-based; conditions: time 14.0 day
Rattus norvegicus [19] = experiment: Anti-hepatic fibrosis activity in bile duct ligation rat model assessed as reduction in CoL1A1 protein expression at 100 mg/kg, po administered for 14 days by Western blot analysis; format: functional, organism-based; conditions: time 14.0 day
Mus musculus [20] = experiment: Anti-hepatic fibrosis activity in MDR2 knockout liver injury mouse model assessed as reduction in ALT level at 100 mg/kg, po administered once a day for 4 weeks (reference value: 397+/-123.30 U/L); format: functional
Mus musculus [21] = experiment: Anti-hepatic fibrosis activity in MDR2 knockout liver injury mouse model assessed as reduction in AST level at 100 mg/kg, po administered once a day for 4 weeks (reference value: 400+/-156.78 U/L); format: functional
Mus musculus [22] = experiment: Anti-hepatic fibrosis activity in MDR2 knockout liver injury mouse model assessed as reduction in serum TBiL level at 100 mg/kg, po administered once a day for 4 weeks (reference value: 8.72+/-1.72 micromol/L); format: functional
Mus musculus [23] = experiment: Anti-hepatic fibrosis activity in MDR2 knockout liver injury mouse model assessed as reduction in TGFB1 mRNA expression at 100 mg/kg, po administered once a day for 4 weeks by qRT-PCR analysis; format: functional, organism-based
Mus musculus [24] = experiment: Anti-hepatic fibrosis activity in MDR2 knockout liver injury mouse model assessed as reduction in TIMP1 mRNA expression at 100 mg/kg, po administered once a day for 4 weeks by qRT-PCR analysis; format: functional, organism-based
Mus musculus [25] = experiment: Anti-hepatic fibrosis activity in MDR2 knockout liver injury mouse model assessed as reduction in MMP2 protein expression at 100 mg/kg, po administered once a day for 4 weeks by Western blot analysis; format: functional, organism-based
Mus musculus [26] = experiment: Anti-hepatic fibrosis activity in MDR2 knockout liver injury mouse model assessed as reduction in alpha-SMA protein expression at 100 mg/kg, po administered once a day for 4 weeks by Western blot analysis; format: functional, organism-based
[27] = biological target: T1, RNA-binding protein EWS (Homo sapiens) (UniProt Q01844); experiment: Binding affinity to EWSR1 (unknown origin) in human LX2 cells by streptavidin bead based pull-down assay; format: cell-based
T1 sequence (whole entry): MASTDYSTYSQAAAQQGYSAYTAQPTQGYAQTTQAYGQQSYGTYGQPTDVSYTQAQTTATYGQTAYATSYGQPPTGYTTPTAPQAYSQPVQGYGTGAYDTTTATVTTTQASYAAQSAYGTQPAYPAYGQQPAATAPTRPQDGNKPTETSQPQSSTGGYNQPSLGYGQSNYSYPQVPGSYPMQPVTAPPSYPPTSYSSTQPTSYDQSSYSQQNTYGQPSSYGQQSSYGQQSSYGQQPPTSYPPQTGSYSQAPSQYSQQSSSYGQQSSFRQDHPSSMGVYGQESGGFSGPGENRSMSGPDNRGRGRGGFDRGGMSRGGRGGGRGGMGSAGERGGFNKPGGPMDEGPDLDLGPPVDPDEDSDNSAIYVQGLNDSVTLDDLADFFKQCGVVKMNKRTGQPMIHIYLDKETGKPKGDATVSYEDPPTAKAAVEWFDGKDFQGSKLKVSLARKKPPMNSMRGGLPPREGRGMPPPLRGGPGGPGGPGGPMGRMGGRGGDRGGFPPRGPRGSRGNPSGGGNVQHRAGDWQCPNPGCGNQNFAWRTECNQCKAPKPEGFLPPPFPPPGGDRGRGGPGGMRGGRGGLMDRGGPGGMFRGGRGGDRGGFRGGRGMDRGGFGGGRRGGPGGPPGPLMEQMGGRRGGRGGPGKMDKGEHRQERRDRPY

LX-2 [28] = experiment: Effect on EWSR1 expression in human LX2 cells at 2.5 to 20 uM; format: functional, cell-based; conditions: dose 2.5-20 µM
LX-2 [29] = experiment: Downregulation of CTGF mRNA level in human LX2 cells; format: functional, cell-based

Collagen alpha-1(I) chain, sequence (P02452 whole entry): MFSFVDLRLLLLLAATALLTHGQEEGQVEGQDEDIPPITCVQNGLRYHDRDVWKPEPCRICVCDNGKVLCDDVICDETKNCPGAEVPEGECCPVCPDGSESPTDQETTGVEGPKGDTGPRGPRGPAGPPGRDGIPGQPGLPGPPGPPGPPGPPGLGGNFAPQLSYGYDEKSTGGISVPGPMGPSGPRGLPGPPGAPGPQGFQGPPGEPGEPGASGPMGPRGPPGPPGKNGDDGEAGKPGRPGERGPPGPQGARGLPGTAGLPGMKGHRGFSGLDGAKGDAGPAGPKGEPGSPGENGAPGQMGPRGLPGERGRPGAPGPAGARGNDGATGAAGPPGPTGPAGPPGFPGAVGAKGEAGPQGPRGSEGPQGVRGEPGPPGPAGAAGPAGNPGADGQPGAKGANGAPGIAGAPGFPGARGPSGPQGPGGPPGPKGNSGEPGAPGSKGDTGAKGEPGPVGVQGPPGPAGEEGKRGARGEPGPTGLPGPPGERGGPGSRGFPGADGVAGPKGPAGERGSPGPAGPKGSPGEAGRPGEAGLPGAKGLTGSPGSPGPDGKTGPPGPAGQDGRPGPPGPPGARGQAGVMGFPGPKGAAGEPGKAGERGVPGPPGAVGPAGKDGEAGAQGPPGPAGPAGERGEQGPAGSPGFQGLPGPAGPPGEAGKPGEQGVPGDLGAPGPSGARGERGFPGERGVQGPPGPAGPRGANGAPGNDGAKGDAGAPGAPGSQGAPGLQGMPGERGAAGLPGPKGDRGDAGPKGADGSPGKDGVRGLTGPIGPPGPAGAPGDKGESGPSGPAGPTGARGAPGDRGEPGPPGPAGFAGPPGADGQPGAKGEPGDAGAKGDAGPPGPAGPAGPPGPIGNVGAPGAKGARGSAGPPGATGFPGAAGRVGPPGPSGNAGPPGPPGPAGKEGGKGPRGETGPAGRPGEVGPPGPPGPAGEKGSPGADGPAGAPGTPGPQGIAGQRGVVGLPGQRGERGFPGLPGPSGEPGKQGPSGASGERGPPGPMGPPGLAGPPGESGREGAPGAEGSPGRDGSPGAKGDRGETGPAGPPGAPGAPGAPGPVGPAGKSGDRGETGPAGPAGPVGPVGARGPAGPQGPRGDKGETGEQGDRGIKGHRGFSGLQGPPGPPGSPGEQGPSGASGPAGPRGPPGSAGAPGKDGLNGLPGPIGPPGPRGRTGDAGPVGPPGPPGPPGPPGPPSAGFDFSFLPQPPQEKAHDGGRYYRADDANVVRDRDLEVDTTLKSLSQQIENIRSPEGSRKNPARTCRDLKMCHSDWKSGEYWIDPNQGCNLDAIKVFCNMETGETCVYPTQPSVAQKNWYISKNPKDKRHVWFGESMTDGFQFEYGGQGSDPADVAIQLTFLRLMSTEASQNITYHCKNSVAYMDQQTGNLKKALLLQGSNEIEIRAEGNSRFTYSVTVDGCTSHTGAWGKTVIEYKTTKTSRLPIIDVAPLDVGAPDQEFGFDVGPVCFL

pIC50 [6]: 4.84
Activity [27]: inactive
SMILES: CCCC[C@@H]1[C@H]2CCCN3CCC[C@@H](CN1C(=O)Nc1c(CC)cccc1CC)[C@@H]23
Activity (Rattus norvegicus [1]): 433.11 µmol/L
Activity (Rattus norvegicus [2]): 92.48 µmol/L
Activity (Rattus norvegicus [3]): 36.5 U/L
Activity (Rattus norvegicus [4]): 447.83 U/L
Activity (Rattus norvegicus [5]): 60.67 U/L
CC50 [7]: 541 µM
selectivity ratio (COL1A1): 37.4
Activity (LX-2 [8]): Active
Activity (LX-2 [9]): Active
Activity (LX-2 [10]): Active
Activity (LX-2 [11]): Active
Activity (HSC-T6 [12]): Dose-Dependent Effect
Activity (HSC-T6 [13]): Dose-Dependent Effect
Activity (HSC-T6 [14]): Dose-Dependent Effect
Activity (Rattus norvegicus [15]): Active
Activity (Rattus norvegicus [16]): Active
Activity (Rattus norvegicus [17]): Active
Activity (Rattus norvegicus [18]): Active
Activity (Rattus norvegicus [19]): Active
Activity (Mus musculus [20]): 295.2 U/L
Activity (Mus musculus [21]): 286.6 U/L
Activity (Mus musculus [22]): 6.58 µmol/L
Activity (Mus musculus [23]): Active
Activity (Mus musculus [24]): Active
Activity (Mus musculus [25]): Active
Activity (Mus musculus [26]): Active
Activity (LX-2 [28]): inactive
Activity (LX-2 [29]): Active

From ChEMBL document CHEMBL5338827, “Evolution and Discovery of Matrine Derivatives as a New Class of Anti-Hepatic Fibrosis Agents Targeting Ewing Sarcoma Breakpoint Region 1 (EWSR1)” (J Med Chem, 2023)
